The record followed here is article PMC9732455, “PCW-A1001, AI-assisted de novo design approach to design a selective inhibitor for FLT-3(D835Y) in acute myeloid leukemia” (Frontiers in Molecular Biosciences, 2022).

For orientation: IC50 means the point on the concentration scale where inhibition reaches its midpoint.

For one experiment, the target named is T1, FLT-3 WT (Homo sapiens, UniProt P36888).
T1 construct: gene FLT3
T1 sequence (P36888 27-993): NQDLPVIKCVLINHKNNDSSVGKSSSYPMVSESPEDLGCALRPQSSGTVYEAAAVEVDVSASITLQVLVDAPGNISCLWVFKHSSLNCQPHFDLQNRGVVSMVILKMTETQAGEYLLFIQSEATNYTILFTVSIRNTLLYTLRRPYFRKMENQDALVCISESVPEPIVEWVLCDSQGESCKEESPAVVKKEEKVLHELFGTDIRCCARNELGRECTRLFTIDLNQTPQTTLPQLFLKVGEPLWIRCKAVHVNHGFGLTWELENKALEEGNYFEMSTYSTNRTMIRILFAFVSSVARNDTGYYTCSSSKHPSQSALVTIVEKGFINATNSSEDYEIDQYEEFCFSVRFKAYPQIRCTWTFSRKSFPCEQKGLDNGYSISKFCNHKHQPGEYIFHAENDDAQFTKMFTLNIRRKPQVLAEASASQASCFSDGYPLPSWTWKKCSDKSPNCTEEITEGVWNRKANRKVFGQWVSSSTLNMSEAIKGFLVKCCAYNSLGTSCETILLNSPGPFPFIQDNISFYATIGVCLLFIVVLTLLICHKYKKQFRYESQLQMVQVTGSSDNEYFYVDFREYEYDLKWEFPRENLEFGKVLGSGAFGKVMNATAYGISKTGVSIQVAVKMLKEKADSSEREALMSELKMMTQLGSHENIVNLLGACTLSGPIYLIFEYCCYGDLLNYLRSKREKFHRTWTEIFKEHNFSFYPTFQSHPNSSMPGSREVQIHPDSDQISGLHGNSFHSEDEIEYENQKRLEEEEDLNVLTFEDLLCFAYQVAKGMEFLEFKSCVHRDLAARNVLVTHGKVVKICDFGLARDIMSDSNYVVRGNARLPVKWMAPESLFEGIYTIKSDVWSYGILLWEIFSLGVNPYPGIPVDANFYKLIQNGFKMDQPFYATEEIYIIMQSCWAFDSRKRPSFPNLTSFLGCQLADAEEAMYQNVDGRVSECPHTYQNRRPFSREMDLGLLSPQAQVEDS
The experiment is described as follows: in vitro kinase assay (ThermoFisher), dose-response. The experiment is classed as biochemical.

The target of another experiment is T2, FLT-3 (D835Y) (Homo sapiens, UniProt P36888, D835Y).
T2 construct: gene FLT3
T2 sequence (P36888 564-993 D835Y limits assumed): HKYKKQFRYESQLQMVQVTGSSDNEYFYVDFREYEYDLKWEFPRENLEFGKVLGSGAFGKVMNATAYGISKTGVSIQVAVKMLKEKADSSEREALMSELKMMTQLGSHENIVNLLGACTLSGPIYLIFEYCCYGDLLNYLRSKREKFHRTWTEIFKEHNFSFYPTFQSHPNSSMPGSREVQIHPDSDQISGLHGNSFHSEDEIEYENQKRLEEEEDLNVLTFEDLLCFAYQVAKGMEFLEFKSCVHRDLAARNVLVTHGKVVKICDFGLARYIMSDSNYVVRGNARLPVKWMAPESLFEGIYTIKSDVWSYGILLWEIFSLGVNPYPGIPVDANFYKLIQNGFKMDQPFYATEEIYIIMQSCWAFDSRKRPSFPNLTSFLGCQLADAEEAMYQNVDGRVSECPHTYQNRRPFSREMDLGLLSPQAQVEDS
The experiment is described as above. The experiment is classed as biochemical.

Take `CC(C)(C)c1ccc(C(=O)Nc2ccc(C(N)=O)c(NC3CCCNC3)c2)cc1` (centres unmarked) [PCW-A1001]: the IC50 was found to be 2540 nM against FLT-3 WT and 764 nM against FLT-3 (D835Y).
